This passage reports IC50 results from patent US11655235B2, “Pyrrolidine and piperidine compounds” (YUHAN CORPORATION, priority 2019, dated 2023).

What is called IC50 is the point on the concentration scale where inhibition reaches its midpoint.

Common to all, as to type: biochemical
For one assay, the target named is T1, recombinant human DPP9 (Homo sapiens, UniProt Q86TI2).
T1 construct: purchased R&D Systems
The assay is described as follows: DPP9 inhibition, fluorogenic substrate H-Gly-Pro-AMC. To be noted: recombinant human DPP9. In outline:
(§1)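 Inhibitors are titrated in an 8-point series into the enzyme's assay buffer (DMSO no more than 0.5%). Substrate cleavage at 25 °C is followed by fluorescence, excitation 380 nm and emission 460 nm. IC50 values come from a four-variable logistic model.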

For another assay, the target named is T2, recombinant human DPP8 (Homo sapiens, UniProt Q6V1X1).
T2 construct: purchased PBS Bioscience
T2 sequence (Q6V1X1 whole entry): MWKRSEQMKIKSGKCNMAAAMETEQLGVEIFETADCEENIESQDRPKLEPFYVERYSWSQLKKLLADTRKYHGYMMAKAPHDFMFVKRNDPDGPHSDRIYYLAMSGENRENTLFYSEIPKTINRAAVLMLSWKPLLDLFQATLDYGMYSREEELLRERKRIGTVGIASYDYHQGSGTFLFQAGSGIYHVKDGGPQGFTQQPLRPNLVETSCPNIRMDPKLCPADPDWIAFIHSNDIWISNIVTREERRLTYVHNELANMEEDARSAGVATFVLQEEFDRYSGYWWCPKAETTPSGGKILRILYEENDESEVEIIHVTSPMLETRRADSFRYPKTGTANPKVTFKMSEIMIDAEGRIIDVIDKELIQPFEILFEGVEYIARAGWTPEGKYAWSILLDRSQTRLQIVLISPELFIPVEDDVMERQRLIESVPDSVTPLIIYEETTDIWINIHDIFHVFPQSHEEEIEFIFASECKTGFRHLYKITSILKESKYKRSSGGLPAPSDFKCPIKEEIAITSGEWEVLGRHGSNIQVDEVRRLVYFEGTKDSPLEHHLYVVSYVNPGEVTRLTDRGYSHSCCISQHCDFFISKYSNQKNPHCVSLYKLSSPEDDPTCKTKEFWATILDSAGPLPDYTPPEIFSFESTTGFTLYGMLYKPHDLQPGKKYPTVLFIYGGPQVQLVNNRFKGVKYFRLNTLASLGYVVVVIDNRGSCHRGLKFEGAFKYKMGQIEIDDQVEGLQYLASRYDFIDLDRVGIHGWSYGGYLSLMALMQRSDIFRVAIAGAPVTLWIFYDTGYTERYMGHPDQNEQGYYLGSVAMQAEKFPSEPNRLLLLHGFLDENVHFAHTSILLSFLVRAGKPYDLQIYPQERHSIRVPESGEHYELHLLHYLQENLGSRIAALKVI
Description: DPP8 inhibition, fluorogenic substrate Z-Ala-Pro-AMC. To be noted: recombinant human DPP8. In outline: as §1

A further assay concerns the target T3, recombinant human PREP (Homo sapiens, UniProt P48147).
T3 construct: purchased R&D System
T3 sequence (P48147 1-710): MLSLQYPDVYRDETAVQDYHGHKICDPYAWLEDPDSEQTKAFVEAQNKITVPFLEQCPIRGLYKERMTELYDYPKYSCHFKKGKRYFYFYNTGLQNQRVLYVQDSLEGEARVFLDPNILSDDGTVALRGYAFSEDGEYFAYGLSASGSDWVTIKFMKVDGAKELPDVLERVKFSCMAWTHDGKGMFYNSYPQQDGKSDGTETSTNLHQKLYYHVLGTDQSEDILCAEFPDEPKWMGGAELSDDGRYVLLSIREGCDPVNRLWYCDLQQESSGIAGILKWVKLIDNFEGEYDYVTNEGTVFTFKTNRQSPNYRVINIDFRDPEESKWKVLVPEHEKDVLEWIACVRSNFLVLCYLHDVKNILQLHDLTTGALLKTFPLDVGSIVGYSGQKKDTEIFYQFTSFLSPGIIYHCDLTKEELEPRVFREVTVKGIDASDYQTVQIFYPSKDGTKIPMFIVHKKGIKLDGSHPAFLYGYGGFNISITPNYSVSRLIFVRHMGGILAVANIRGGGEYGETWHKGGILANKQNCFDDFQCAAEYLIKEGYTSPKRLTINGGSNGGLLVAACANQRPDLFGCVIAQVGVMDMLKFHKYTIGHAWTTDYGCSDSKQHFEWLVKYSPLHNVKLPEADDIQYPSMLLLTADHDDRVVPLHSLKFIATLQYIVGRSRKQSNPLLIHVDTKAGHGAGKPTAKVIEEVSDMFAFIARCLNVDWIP
Description: PREP inhibition, fluorogenic substrate Z-Gly-Pro-AMC. Particulars: Inhibitory Activity (IC50, nM) PREP, recombinant human PREP. In outline: as §1

A further assay concerns the target T4, Recombinant human FAP (Homo sapiens, UniProt Q12884).
T4 construct: purchased R&D systems
T4 sequence (Q12884 1-760): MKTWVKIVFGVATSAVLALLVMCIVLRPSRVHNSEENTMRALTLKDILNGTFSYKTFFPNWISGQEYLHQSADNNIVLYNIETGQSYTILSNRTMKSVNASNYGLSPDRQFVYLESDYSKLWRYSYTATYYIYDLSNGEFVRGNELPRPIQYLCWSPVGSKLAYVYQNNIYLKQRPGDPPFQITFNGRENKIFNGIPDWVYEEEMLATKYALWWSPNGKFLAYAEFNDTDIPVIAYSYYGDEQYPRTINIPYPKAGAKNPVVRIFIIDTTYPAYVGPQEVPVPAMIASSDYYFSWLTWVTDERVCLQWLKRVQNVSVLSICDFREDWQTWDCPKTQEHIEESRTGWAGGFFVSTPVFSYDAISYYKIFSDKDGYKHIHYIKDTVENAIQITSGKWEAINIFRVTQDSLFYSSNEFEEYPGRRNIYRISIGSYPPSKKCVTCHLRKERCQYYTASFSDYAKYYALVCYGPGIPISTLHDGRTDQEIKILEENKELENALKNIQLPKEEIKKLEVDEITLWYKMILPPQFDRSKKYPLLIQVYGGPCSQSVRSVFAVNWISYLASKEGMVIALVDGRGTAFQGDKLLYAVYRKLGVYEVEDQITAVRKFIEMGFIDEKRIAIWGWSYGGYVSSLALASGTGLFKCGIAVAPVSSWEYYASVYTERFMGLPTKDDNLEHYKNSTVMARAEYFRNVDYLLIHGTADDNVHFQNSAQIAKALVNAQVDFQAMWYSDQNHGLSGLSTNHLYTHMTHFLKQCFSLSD
Description: FAP inhibition, fluorogenic substrate Z-Gly-Pro-AMC. Particulars: recombinant human FAP, substrate Z-Gly-Pro-AMC. In outline:
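Eight-point compound dilutions (≤0.1% DMSO) were incubated at 25° C with 10 ng recombinant human FAP in Tris pH 7.5/1 M NaCl/BSA buffer and Z-Gly-Pro-AMC. Inhibition was taken as % drop in fluorescence rate (380/460 nm) against uninhibited control; IC50 came from a four-parameter logistic fit.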

For another assay, the target named is DPP4 (Homo sapiens, UniProt P27487). Description: DPP4 inhibition, fluorogenic substrate H-Gly-Pro-AMC. More on the design: purchased R&D Systems. Particulars: recombinant human DPP4.
Sequence of DPP4 (P27487 whole entry): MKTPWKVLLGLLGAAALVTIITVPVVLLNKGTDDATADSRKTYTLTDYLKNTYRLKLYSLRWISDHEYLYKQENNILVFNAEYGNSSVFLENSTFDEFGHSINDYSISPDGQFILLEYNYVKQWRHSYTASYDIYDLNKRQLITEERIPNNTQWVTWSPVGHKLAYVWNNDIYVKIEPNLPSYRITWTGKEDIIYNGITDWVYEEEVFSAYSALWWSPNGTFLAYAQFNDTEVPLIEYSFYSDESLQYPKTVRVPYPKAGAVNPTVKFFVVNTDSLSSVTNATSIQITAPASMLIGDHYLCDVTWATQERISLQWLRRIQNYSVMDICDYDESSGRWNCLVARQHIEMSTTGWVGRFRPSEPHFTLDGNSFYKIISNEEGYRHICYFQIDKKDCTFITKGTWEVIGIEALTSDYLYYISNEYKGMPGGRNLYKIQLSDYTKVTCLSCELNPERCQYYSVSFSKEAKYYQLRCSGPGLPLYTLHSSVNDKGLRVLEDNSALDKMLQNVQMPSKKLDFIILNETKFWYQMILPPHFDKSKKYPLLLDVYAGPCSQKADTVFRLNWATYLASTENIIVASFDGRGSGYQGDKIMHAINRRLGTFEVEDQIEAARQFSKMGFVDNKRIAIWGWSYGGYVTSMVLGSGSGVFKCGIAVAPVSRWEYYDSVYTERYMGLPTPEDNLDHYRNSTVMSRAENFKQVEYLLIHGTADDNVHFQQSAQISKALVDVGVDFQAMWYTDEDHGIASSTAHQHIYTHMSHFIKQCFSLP
A further assay has as its target T5, recombinant human DPP7 (Homo sapiens, UniProt Q9UHL4).
T5 construct: purchased R&D Systems
Description: DPP7 inhibition, fluorogenic substrate Lys-Pro-AMC. To be noted: recombinant human DPP7. In short, it runs like this: as §1

A value given as a limit tells only on which side of the number the result lay.

T1 sequence (Q86TI2 whole entry): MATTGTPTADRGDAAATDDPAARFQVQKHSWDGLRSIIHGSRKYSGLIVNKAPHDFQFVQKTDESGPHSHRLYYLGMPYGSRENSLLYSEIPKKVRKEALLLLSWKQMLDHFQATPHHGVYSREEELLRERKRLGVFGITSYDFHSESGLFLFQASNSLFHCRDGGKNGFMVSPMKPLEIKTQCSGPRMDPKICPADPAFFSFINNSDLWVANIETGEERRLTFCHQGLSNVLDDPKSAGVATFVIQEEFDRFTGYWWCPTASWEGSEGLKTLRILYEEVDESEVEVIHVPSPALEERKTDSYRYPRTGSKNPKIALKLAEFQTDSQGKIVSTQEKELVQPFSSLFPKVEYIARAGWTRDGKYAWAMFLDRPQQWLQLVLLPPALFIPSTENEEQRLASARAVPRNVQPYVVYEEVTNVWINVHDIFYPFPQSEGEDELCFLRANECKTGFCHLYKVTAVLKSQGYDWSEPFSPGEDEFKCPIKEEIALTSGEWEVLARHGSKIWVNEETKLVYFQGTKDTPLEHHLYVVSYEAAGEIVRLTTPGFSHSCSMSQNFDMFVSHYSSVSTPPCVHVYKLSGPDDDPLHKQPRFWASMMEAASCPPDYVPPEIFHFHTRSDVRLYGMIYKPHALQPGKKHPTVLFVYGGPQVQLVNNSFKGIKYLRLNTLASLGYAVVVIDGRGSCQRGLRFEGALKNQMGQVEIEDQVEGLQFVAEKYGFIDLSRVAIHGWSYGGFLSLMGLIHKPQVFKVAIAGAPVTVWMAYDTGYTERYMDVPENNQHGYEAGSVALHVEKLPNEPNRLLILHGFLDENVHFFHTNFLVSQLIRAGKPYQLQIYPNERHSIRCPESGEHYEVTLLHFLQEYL

`N#Cc1cnc2cccc(N[C@H]3CCN(CC(=O)N4C[C@@H](F)C[C@H]4C#N)C3)c2c1` [Example 253, 5-[[(3S)-1-[2-oxo-2-[(2S,4S)-2-cyano-4-fluoro-pyrrolidin-1-yl]ethyl]pyrrolidin-3-yl]amino]quinoline-3-carbonitrile]: the concentration for half-maximal inhibition (IC50) stood at 5360 nM on recombinant human DPP9; 2670 nM on recombinant human DPP8; 2220 nM at recombinant human PREP; 0.9 nM on Recombinant human FAP; 2310 nM at DPP4; 2190 nM on recombinant human DPP7.

Take `COc1cnc2cccc(N[C@H]3CCN(CC(=O)N4C[C@@H](F)C[C@H]4C#N)C3)c2c1` [Example 254, (2S,4S)-4-fluoro-1-[2-[(3S)-3-[(3-methoxy-5-quinolyl)amino]pyrrolidin-1-yl]acetyl]pyrrolidine-2-carbonitrile]: the half-maximal inhibitory concentration (IC50) on recombinant human DPP9 was determined as 13100 nM; at recombinant human DPP8 it was 12200 nM; on recombinant human PREP, 275 nM; at Recombinant human FAP, 2.1 nM; on DPP4, 4710 nM; on recombinant human DPP7 it was 1400 nM.

On to `N#C[C@@H]1C[C@H](F)CN1C(=O)CN1CC[C@H](Nc2cccc3ncc(Cl)cc23)C1` [Example 256, (2S,4S)-4-fluoro-1-[2-[(3S)-3-[(3-chloro-5-quinolyl)amino]pyrrolidin-1-yl]acetyl]pyrrolidine-2-carbonitrile], for which the IC50 was found to be 6960 nM on recombinant human DPP9; 3350 nM at recombinant human DPP8; 603 nM at recombinant human PREP; 0.8 nM on Recombinant human FAP; 1880 nM at DPP4; 1790 nM at recombinant human DPP7.

Regarding `COc1cc(N[C@H]2CCN(CC(=O)N3C[C@@H](F)C[C@H]3C#N)C2)c2cccnc2c1` [Example 257, (2S,4S)-4-fluoro-1-[2-[(3S)-3-[(7-methoxy-5-quinolyl)amino]pyrrolidin-1-yl]acetyl]pyrrolidine-2-carbonitrile], the IC50 came out at 6560 nM on recombinant human DPP9; 4540 nM on recombinant human DPP8; 1530 nM at recombinant human PREP; 0.9 nM at Recombinant human FAP; 694 nM at DPP4; 289 nM at recombinant human DPP7.

With `N#C[C@@H]1C[C@H](F)CN1C(=O)CN1CC[C@H](Nc2cc(C(F)(F)F)cc3ncccc23)C1` [Example 258, (2S,4S)-4-fluoro-1-[2-[(3S)-3-[[7-(trifluoromethyl)-5-quinolyl]amino]pyrrolidin-1-yl]acetyl]pyrrolidine-2-carbonitrile], the concentration for half-maximal inhibition (IC50) at recombinant human DPP9 was 7970 nM; at recombinant human DPP8, > 100000 nM; on recombinant human PREP it was 1280 nM; at Recombinant human FAP, 1 nM; on DPP4, 1830 nM; at recombinant human DPP7 it was 1390 nM.

As for `Cc1ccc2ncccc2c1N[C@H]1CCN(CC(=O)N2C[C@@H](F)C[C@H]2C#N)C1` [Example 259, (2S,4S)-4-fluoro-1-[2-[(3S)-3-[(6-methyl-5-quinolyl)amino]pyrrolidin-1-yl]acetyl]pyrrolidine-2-carbonitrile], the half-maximal inhibitory concentration (IC50) came out at 8430 nM at recombinant human DPP9; 18600 nM at recombinant human DPP8; 2470 nM on recombinant human PREP; 2.6 nM at Recombinant human FAP; 1270 nM on DPP4; 3310 nM at recombinant human DPP7.

For `COc1ccc2ncccc2c1N[C@H]1CCN(CC(=O)N2C[C@@H](F)C[C@H]2C#N)C1` [Example 260, (2S,4S)-4-fluoro-1-[2-[(3S)-3-[(6-methoxy-5-quinolyl)amino]pyrrolidin-1-yl]acetyl]pyrrolidine-2-carbonitrile], the IC50 on recombinant human DPP9 is 7710 nM; on recombinant human DPP8, 20800 nM; at recombinant human PREP, 6500 nM; on Recombinant human FAP, 5.8 nM; on DPP4, 741 nM; at recombinant human DPP7 it was 8280 nM.

`N#C[C@@H]1C[C@H](F)CN1C(=O)CN1CC[C@H](Nc2c(F)ccc3ncccc23)C1` [Example 261, (2S,4S)-4-fluoro-1-[2-[(3S)-3-[(6-fluoro-5-quinolyl)amino]pyrrolidin-1-yl]acetyl]pyrrolidine-2-carbonitrile]: the IC50 on recombinant human DPP9 came to 9420 nM; on recombinant human DPP8, 20800 nM; on recombinant human PREP, 3940 nM; on Recombinant human FAP, 2 nM; on DPP4 it was 1170 nM; at recombinant human DPP7, 6570 nM.

In the case of `Cc1ccc(N[C@H]2CCN(CC(=O)N3C[C@@H](F)C[C@H]3C#N)C2)c2cccnc12` [Example 262, (2S,4S)-4-fluoro-1-[2-[(3S)-3-[(8-methyl-5-quinolyl)amino]pyrrolidin-1-yl]acetyl]pyrrolidine-2-carbonitrile], the IC50 stood at 3560 nM at recombinant human DPP9; 3010 nM at recombinant human DPP8; 1850 nM on recombinant human PREP; 1.2 nM at Recombinant human FAP; 1360 nM on DPP4; 452 nM on recombinant human DPP7.

`N#C[C@@H]1C[C@H](F)CN1C(=O)CN1CC[C@H](Nc2ccc(C(F)(F)F)c3ncccc23)C1` [Example 265, (2S,4S)-4-fluoro-1-[2-[(3S)-3-[[8-(trifluoromethyl)-5-quinolyl]amino]pyrrolidin-1-yl]acetyl]pyrrolidine-2-carbonitrile]: the IC50 is 5420 nM on recombinant human DPP9; > 100000 nM on recombinant human DPP8; 1730 nM on recombinant human PREP; 0.8 nM on Recombinant human FAP; 1240 nM on DPP4; 1130 nM at recombinant human DPP7.

As to `N#C[C@@H]1C[C@H](F)CN1C(=O)CN1CC[C@H](Nc2cc(F)cc3ncccc23)C1` [Example 269, (2S,4S)-4-fluoro-1-[2-[(3S)-3-[(7-fluoro-5-quinolyl)amino]pyrrolidin-1-yl]acetyl]pyrrolidine-2-carbonitrile], the half-inhibitory concentration (IC50) was found to be 4920 nM on recombinant human DPP9; 7180 nM at recombinant human DPP8; 2310 nM on recombinant human PREP; 1.2 nM at Recombinant human FAP; 2840 nM on DPP4; 812 nM on recombinant human DPP7.

With `N#C[C@@H]1CCCN1C(=O)CN1CC[C@H](Nc2ccnc3c(C(F)(F)F)cccc23)C1` [Example 270, (2S)-1-[2-[(3S)-3-[[8-(trifluoromethyl)-4-quinolyl]amino]pyrrolidin-1-yl]acetyl]pyrrolidine-2-carbonitrile], the IC50 at recombinant human DPP9 is 19200 nM; on recombinant human DPP8, 44000 nM; on recombinant human PREP, 10900 nM; at Recombinant human FAP, 1.3 nM; on DPP4, > 10000 nM; at recombinant human DPP7, 591 nM.

Take `N#C[C@@H]1C[C@H](F)CN1C(=O)CN1CC[C@H](Nc2ccnc3c(C(F)(F)F)cccc23)C1` [Example 271, (2S,4S)-4-fluoro-1-[2-[(3S)-3-[[8-(trifluoromethyl)-4-quinolyl]amino]pyrrolidin-1-yl]acetyl]pyrrolidine-2-carbonitrile]: the 50% inhibitory concentration (IC50) at recombinant human DPP9 was found to be 4410 nM; on recombinant human DPP8, 7980 nM; at recombinant human PREP, 3740 nM; on Recombinant human FAP it was 1.4 nM; on DPP4, 3790 nM; on recombinant human DPP7 it was 213 nM.
